Common to all, as to format: cell-based, Human
In one data set the test system is A549. The experiment in a line: CCK-8 cell viability, single agent. The protocol:
(§1) Cell metabolism/viability was assessed using a mitochondrial metabolism assay (CCK-8) kit (Cell Counting Kit-8, Cat: CK04, Dojindo Laboratories, Rockville, MD, USA) as previously described. Briefly, cells were seeded at a density of 3 × 10^3 cells per well in 96-well plates and allowed to adhere and stretch for 18–24 h prior to treatment. Cells were pre-treated with Ku-DBi for 24 h before bleomycin treatments. Subsequently, cells were incubated for an additional 48 h at 37 °C after which CCK-8 assay was performed. The absorbance of the formed formazan product in each well was measured at 450 nm and compared to vehicle-treated controls to determine percent cell viability. The results represent the average and SEM of triplicate determinations.

The test system of a further data set is H1299. Description: CCK-8 cell viability, single agent. The procedure: as §1
In the next data set the test system is H23. The experiment in a line: CCK-8 cell viability, single agent. Conditions: Homo sapiens. The procedure:
as §1

The next data set has as its system H460. Description: CCK-8 cell viability, single agent. To be noted: for IC50: H460, CCK-8, 72 h, mean ± SD. The protocol: as §1
The next data set concerns MDA-436. The experiment in a line: CCK-8 cell viability, single agent. Conditions: Homo sapiens. The protocol: as §1
A further data set deals with MDA-468. The experiment in a line: CCK-8 cell viability, single agent. Conditions: Homo sapiens. The procedure: as §1
The next data set relates to A549 cells. Description: Clonogenic survival in combination with IR. Conditions: A549, 2 Gy. The procedure: (§2) NSCLC cells were seeded at 2 × 10^5 cells per well into 24-well plates and grown as monolayers at 37 °C and 5% CO2 in media one day before Ku-DBi or vehicle treatments. After 2 h, cells were placed on ice for 10 min and kept on ice during irradiation with either 2 or 5 Gy of 160 kVp X-rays using a Precision X-ray machine (North Branford, CT, USA) at a dose rate of 0.687 Gy/min. Radiation dosimetry measurements were performed using a Farmer-type ionization chamber (PTW Model N30013, Freiburg, Germany) in conjunction with a Keithley electrometer (Model K602, Cleveland, OH, USA). After irradiation, cells were incubated for 1 h at 37 °C, trypsinized, replated in 100 mm dishes, and incubated at 37 °C in 5% CO2. After 11 days, cells were carefully washed in PBS before fixing and staining in 0.5% crystal violet (Cat: C581-100, Fisher Scientific, Hampton, NH, USA) with 6% glutaraldehyde (Glutaraldehyde solution, 25%. Cat: O2957-1, Fisher Scientific) in PBS for 1 h at RT. The staining solution was removed, and cells were washed with water and air-dried. For clonogenic survival analysis, colonies containing more than 50 cells were manually counted and normalized to vehicle control conditions to determine surviving fractions.

A further data set concerns H23 cells. Description: Clonogenic survival in combination with IR. The procedure: as §2

Molecules are shown by their SMILES.

This is an account of results in publication PMC11475570, “Impact of Optimized Ku–DNA Binding Inhibitors on the Cellular and In Vivo DNA Damage Response” (Cancers, 2024).

As usually defined, the viability is a read-out of living cells in per cent, often relative to untreated cells. Low values mean a greater loss of cells, high ones better survival. By IC50 is commonly meant the midpoint of a concentration-inhibition curve. High values mean lower potency, low ones higher potency.

On to `COc1ccc(-c2ccc(/C=C3\C(=O)N(c4cccc(C(=O)O)c4)c4ccccc43)o2)cc1C(=O)Nc1cccc(OC(F)(F)F)c1` [GL-3392], for which the “Cell viability at the highest concentrations assessed” value is roughly 50% in the data set with A549 (A549) and ~ 90% in the data set on H1299 (H1299). Further, the viability at 25 µM stood at 46.2 ± 3.8% in the data set on A549 (Homo sapiens, A549, 25 µM); 89.9 ± 10.1% in the data set with H1299 (Homo sapiens, NCI-H1299, H1299, 25 µM); 12.7 ± 0.7% with H23 (NCI-H23, H23, 25 µM); 12.3 ± 0.6% in the data set with H460 (Homo sapiens, NCI-H460, H460, 25 µM); 43.9 ± 2.6% in the data set with MDA-436 (MDA-436, 25 µM); 29.4 ± 1.3% in the data set with MDA-468 (MDA-468, 25 µM). Besides, the IC50 in the data set on A549 (Homo sapiens, A549, CCK-8, 72 h, mean ± SD) is greater than 50 µM; in the data set with H1299 (Homo sapiens, NCI-H1299, H1299, CCK-8, 72 h, mean ± SD) it was greater than 50 µM; with H23 (NCI-H23, 72 h, H23, CCK-8, 72 h, mean ± SD) it was roughly 8 µM; with H460, 7.7 ± 0.6 µM; in the data set with H460 (Homo sapiens, NCI-H460, 72 h) it was roughly 8 µM; in the data set on MDA-436 (MDA-436, CCK-8, 72 h, mean ± SD), 22.2 ± 1.4 µM. The IC50 in the data set on MDA-468 (MDA-468, CCK-8, 72 h, mean ± SD) was determined as 10.4 ± 1.5 µM. In addition, the “Sensitivity in combination with IR, clonogenic survival” value is “increased sensitivity when combined with a 2 Gy radiation dose” in the data set with A549 cells; “minimal, statistically insignificant effect” in the data set with H23 cells (ATM-null H23, 2 Gy); “significantly sensitized” in the data set on H23 cells (ATM-null H23, 5 Gy).
